The molecules below were run on Human immunodeficiency virus 2 (assay: Effective concentration required to inhibit HIV-2 induced cytopathicity in human CEM cell line). Settings: Human immunodeficiency virus 2, CCRF-CEM.
Format: functional, organism-based

Compound	EC50 [µM]
Cc1cn([C@@H]2O[C@H](CO[Si](C)(C)C(C)(C)C)[C@@]3(OS(=O)(=O)C=C3N)[C@H]2O[Si](C)(C)C(C)(C)C)c(=O)n(CCO)c1=O	> 10
Cc1cn([C@@H]2O[C@H](CO[Si](C)(C)C(C)(C)C)[C@@]3(OS(=O)(=O)C=C3N)[C@H]2O[Si](C)(C)C(C)(C)C)c(=O)n(CC2CC2)c1=O	> 10
Cc1cn([C@@H]2O[C@H](CO[Si](C)(C)C(C)(C)C)[C@@]3(OS(=O)(=O)C=C3N)[C@H]2O[Si](C)(C)C(C)(C)C)c(=O)n(CCCN(CC(=O)O)CC(=O)O)c1=O	> 10
CCCCOC(=O)CN(CCCn1c(=O)c(C)cn([C@@H]2O[C@H](CO[Si](C)(C)C(C)(C)C)[C@@]3(OS(=O)(=O)C=C3N)[C@H]2O[Si](C)(C)C(C)(C)C)c1=O)CC(=O)OCCCC	> 250

The molecules below were run against Human immunodeficiency virus type 1 reverse transcriptase (Human immunodeficiency virus 1, UniProt Q72547) (assay: Inhibitory concentration required to inhibit recombinant HIV-1 reverse transcriptase). Settings: not given.

Compound	IC50 [µM]
Cc1cn([C@@H]2O[C@H](CO[Si](C)(C)C(C)(C)C)[C@@]3(OS(=O)(=O)C=C3N)[C@H]2O[Si](C)(C)C(C)(C)C)c(=O)n(CCO)c1=O	3.1
Cc1cn([C@@H]2O[C@H](CO[Si](C)(C)C(C)(C)C)[C@@]3(OS(=O)(=O)C=C3N)[C@H]2O[Si](C)(C)C(C)(C)C)c(=O)n(CC2CC2)c1=O	> 500
Cc1cn([C@@H]2O[C@H](CO[Si](C)(C)C(C)(C)C)[C@@]3(OS(=O)(=O)C=C3N)[C@H]2O[Si](C)(C)C(C)(C)C)c(=O)n(CCCN(CC(=O)O)CC(=O)O)c1=O	> 500
CCCCOC(=O)CN(CCCn1c(=O)c(C)cn([C@@H]2O[C@H](CO[Si](C)(C)C(C)(C)C)[C@@]3(OS(=O)(=O)C=C3N)[C@H]2O[Si](C)(C)C(C)(C)C)c1=O)CC(=O)OCCCC	> 500

The molecules below were run on CCRF-CEM (assay: Ratio of cytostatic concentration to effective concentration in human CEM cell line). Settings: not given.
Format: functional

Compound	SI
Cc1cn([C@@H]2O[C@H](CO[Si](C)(C)C(C)(C)C)[C@@]3(OS(=O)(=O)C=C3N)[C@H]2O[Si](C)(C)C(C)(C)C)c(=O)n(CCO)c1=O	282
Cc1cn([C@@H]2O[C@H](CO[Si](C)(C)C(C)(C)C)[C@@]3(OS(=O)(=O)C=C3N)[C@H]2O[Si](C)(C)C(C)(C)C)c(=O)n(CC2CC2)c1=O	335
Cc1cn([C@@H]2O[C@H](CO[Si](C)(C)C(C)(C)C)[C@@]3(OS(=O)(=O)C=C3N)[C@H]2O[Si](C)(C)C(C)(C)C)c(=O)n(CCCN(CC(=O)O)CC(=O)O)c1=O	>63
CCCCOC(=O)CN(CCCn1c(=O)c(C)cn([C@@H]2O[C@H](CO[Si](C)(C)C(C)(C)C)[C@@]3(OS(=O)(=O)C=C3N)[C@H]2O[Si](C)(C)C(C)(C)C)c1=O)CC(=O)OCCCC	71

What follows are molecules tested on Human immunodeficiency virus 1 (assay: Effective concentration required to inhibit HIV-1/138K induced cytopathicity in human CEM cell line). Settings: Human immunodeficiency virus 1, CCRF-CEM.
Format: functional, organism-based

Compound	EC50 [µM]
Cc1cn([C@@H]2O[C@H](CO[Si](C)(C)C(C)(C)C)[C@@]3(OS(=O)(=O)C=C3N)[C@H]2O[Si](C)(C)C(C)(C)C)c(=O)n(CCO)c1=O	8
Cc1cn([C@@H]2O[C@H](CO[Si](C)(C)C(C)(C)C)[C@@]3(OS(=O)(=O)C=C3N)[C@H]2O[Si](C)(C)C(C)(C)C)c(=O)n(CC2CC2)c1=O	> 50
Cc1cn([C@@H]2O[C@H](CO[Si](C)(C)C(C)(C)C)[C@@]3(OS(=O)(=O)C=C3N)[C@H]2O[Si](C)(C)C(C)(C)C)c(=O)n(CCCN(CC(=O)O)CC(=O)O)c1=O	> 50
CCCCOC(=O)CN(CCCn1c(=O)c(C)cn([C@@H]2O[C@H](CO[Si](C)(C)C(C)(C)C)[C@@]3(OS(=O)(=O)C=C3N)[C@H]2O[Si](C)(C)C(C)(C)C)c1=O)CC(=O)OCCCC	> 250

What follows are molecules tested on Human immunodeficiency virus 2 (assay: Effective concentration required to inhibit HIV-2 induced cytopathicity in human MT-4 cell line). Settings: Human immunodeficiency virus 2, MT4.
Format: functional, organism-based

Compound	EC50 [µM]
Cc1cn([C@@H]2O[C@H](CO[Si](C)(C)C(C)(C)C)[C@@]3(OS(=O)(=O)C=C3N)[C@H]2O[Si](C)(C)C(C)(C)C)c(=O)n(CCO)c1=O	> 10
Cc1cn([C@@H]2O[C@H](CO[Si](C)(C)C(C)(C)C)[C@@]3(OS(=O)(=O)C=C3N)[C@H]2O[Si](C)(C)C(C)(C)C)c(=O)n(CC2CC2)c1=O	> 50
Cc1cn([C@@H]2O[C@H](CO[Si](C)(C)C(C)(C)C)[C@@]3(OS(=O)(=O)C=C3N)[C@H]2O[Si](C)(C)C(C)(C)C)c(=O)n(CCCN(CC(=O)O)CC(=O)O)c1=O	> 50
CCCCOC(=O)CN(CCCn1c(=O)c(C)cn([C@@H]2O[C@H](CO[Si](C)(C)C(C)(C)C)[C@@]3(OS(=O)(=O)C=C3N)[C@H]2O[Si](C)(C)C(C)(C)C)c1=O)CC(=O)OCCCC	> 250

What follows are molecules tested on Human immunodeficiency virus 1 (assay: Effective concentration required to inhibit HIV-1 induced cytopathicity in human MT-4 cell line). Settings: Human immunodeficiency virus 1, MT4.
Format: functional, organism-based

Compound	EC50 [µM]
Cc1cn([C@@H]2O[C@H](CO[Si](C)(C)C(C)(C)C)[C@@]3(OS(=O)(=O)C=C3N)[C@H]2O[Si](C)(C)C(C)(C)C)c(=O)n(CCO)c1=O	0.06
Cc1cn([C@@H]2O[C@H](CO[Si](C)(C)C(C)(C)C)[C@@]3(OS(=O)(=O)C=C3N)[C@H]2O[Si](C)(C)C(C)(C)C)c(=O)n(CC2CC2)c1=O	0.2
CCCCOC(=O)CN(CCCn1c(=O)c(C)cn([C@@H]2O[C@H](CO[Si](C)(C)C(C)(C)C)[C@@]3(OS(=O)(=O)C=C3N)[C@H]2O[Si](C)(C)C(C)(C)C)c1=O)CC(=O)OCCCC	12.8

What follows are molecules tested on Human immunodeficiency virus 1 (assay: Effective concentration required to inhibit HIV-1 induced cytopathicity in human CEM cell line). Settings: Human immunodeficiency virus 1, CCRF-CEM.
Format: functional, organism-based

Compound	EC50 [µM]
Cc1cn([C@@H]2O[C@H](CO[Si](C)(C)C(C)(C)C)[C@@]3(OS(=O)(=O)C=C3N)[C@H]2O[Si](C)(C)C(C)(C)C)c(=O)n(CCO)c1=O	0.04
Cc1cn([C@@H]2O[C@H](CO[Si](C)(C)C(C)(C)C)[C@@]3(OS(=O)(=O)C=C3N)[C@H]2O[Si](C)(C)C(C)(C)C)c(=O)n(CC2CC2)c1=O	0.18
Cc1cn([C@@H]2O[C@H](CO[Si](C)(C)C(C)(C)C)[C@@]3(OS(=O)(=O)C=C3N)[C@H]2O[Si](C)(C)C(C)(C)C)c(=O)n(CCCN(CC(=O)O)CC(=O)O)c1=O	4
CCCCOC(=O)CN(CCCn1c(=O)c(C)cn([C@@H]2O[C@H](CO[Si](C)(C)C(C)(C)C)[C@@]3(OS(=O)(=O)C=C3N)[C@H]2O[Si](C)(C)C(C)(C)C)c1=O)CC(=O)OCCCC	3.5

What follows are molecules tested on CCRF-CEM (assay: Cytostatic concentration required to inhibit cell proliferation in human CEM cell line). Settings: not given.
Format: functional

Compound	CC50 [µM]
Cc1cn([C@@H]2O[C@H](CO[Si](C)(C)C(C)(C)C)[C@@]3(OS(=O)(=O)C=C3N)[C@H]2O[Si](C)(C)C(C)(C)C)c(=O)n(CCO)c1=O	11.3
Cc1cn([C@@H]2O[C@H](CO[Si](C)(C)C(C)(C)C)[C@@]3(OS(=O)(=O)C=C3N)[C@H]2O[Si](C)(C)C(C)(C)C)c(=O)n(CC2CC2)c1=O	60.4
Cc1cn([C@@H]2O[C@H](CO[Si](C)(C)C(C)(C)C)[C@@]3(OS(=O)(=O)C=C3N)[C@H]2O[Si](C)(C)C(C)(C)C)c(=O)n(CCCN(CC(=O)O)CC(=O)O)c1=O	> 250
CCCCOC(=O)CN(CCCn1c(=O)c(C)cn([C@@H]2O[C@H](CO[Si](C)(C)C(C)(C)C)[C@@]3(OS(=O)(=O)C=C3N)[C@H]2O[Si](C)(C)C(C)(C)C)c1=O)CC(=O)OCCCC	> 250
